Where “and” joins values, the source holds several entries; their conditions need not be identical. Equal entries are not always repeated. Where two headings read alike, the source gives them in different places.
Assays:
[1] = biological target: T1, SpPot1-DBD binding to d(GGTTACGGTTAC) (Schizosaccharomyces pombe, UniProt O13988); assay: Double filter-binding competition assay, SpPot1-DBD/cognate ssDNA
T1 sequence (O13988 1-389 limits assumed): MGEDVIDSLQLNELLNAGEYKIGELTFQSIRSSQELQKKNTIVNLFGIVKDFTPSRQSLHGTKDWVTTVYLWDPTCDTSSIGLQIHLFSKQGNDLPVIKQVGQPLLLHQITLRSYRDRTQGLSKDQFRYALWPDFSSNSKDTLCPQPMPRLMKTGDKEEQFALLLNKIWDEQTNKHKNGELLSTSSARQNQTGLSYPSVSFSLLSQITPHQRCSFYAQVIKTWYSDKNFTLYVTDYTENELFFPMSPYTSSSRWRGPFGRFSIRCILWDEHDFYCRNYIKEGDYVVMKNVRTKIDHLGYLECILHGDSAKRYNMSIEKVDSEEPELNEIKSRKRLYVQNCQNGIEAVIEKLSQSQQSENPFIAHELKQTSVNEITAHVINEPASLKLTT

[2] = biological target: T2, hPOT1-DBD binding to d(GGTTAGGGTTAG) (Homo sapiens, UniProt Q9NUX5); assay: Double filter-binding competition assay, hPOT1-DBD/telomeric ssDNA
T2 sequence (Q9NUX5 1-299): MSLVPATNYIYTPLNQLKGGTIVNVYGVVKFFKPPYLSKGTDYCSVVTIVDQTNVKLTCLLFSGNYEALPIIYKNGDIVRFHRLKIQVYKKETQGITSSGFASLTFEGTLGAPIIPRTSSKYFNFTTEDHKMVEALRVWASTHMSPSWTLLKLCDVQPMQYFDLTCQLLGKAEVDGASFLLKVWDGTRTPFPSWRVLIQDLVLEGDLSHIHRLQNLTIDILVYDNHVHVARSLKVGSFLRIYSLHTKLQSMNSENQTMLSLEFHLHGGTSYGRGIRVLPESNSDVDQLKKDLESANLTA

[3] = biological target: T3, Pot1pN binding to 6mer ssDNA (Schizosaccharomyces pombe, UniProt O13988); assay: Secondary double filter-binding assay, Pot1pN/6mer; conditions: compound up to 500 μM
T3 sequence (O13988 1-187 limits assumed): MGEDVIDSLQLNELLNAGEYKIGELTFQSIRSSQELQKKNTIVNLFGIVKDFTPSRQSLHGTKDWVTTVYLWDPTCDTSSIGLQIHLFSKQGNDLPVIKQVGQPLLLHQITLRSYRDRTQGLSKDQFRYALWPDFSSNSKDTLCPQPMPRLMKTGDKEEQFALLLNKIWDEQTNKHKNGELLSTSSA

Pot1pN = biological target: T4, Pot1pN (Schizosaccharomyces pombe, UniProt O13988); assay: Dynamic light scattering of Pot1pN/CR complex; conditions: DLS, equimolar CR 300 μM
T4 sequence (O13988 1-187 limits assumed): T3 sequence (O13988 1-187 limits assumed)

CR solubility at NMR pH = assay type: physicochemical
[4] = cited from earlier work
[5] = tested on: cell culture and animal models; conditions: high doses (~ 100 μM); cited from earlier work
germ cells = conditions: prenatal administration during germ cell development, mice; cited from earlier work
amyloidosis phenotypes = conditions: low doses (≤ 10 μM); cited from earlier work
[6] = biological target: T5, Pot1pN (first DNA-binding OB fold of S. pombe Pot1) (Schizosaccharomyces pombe, UniProt O13988); assay: ITC of ligand binding to Pot1pN; conditions: for -TΔS / ΔH / Kd: ITC, 20 °C; for Kd: one-site binding model
[7] = biological target: T5, Pot1pN (first DNA-binding OB fold of S. pombe Pot1); conditions: read-out: KD of Pot1pN/6mer interaction; cognate ssDNA ligand; cited from earlier work
6xHis-Pot1pN (TR-FRET) = biological target: T6, 6xHis-Pot1pN (TR-FRET) (Schizosaccharomyces pombe, UniProt O13988 1-187); assay: TR-FRET
T6 sequence: T3 sequence (O13988 1-187 limits assumed)

hPOT1 (hPOT1-DBD) = biological target: T7, hPOT1 (hPOT1-DBD) (human, UniProt Q9NUX5 1-299); assay: double-filter binding
T7 sequence: T2 sequence (Q9NUX5 1-299)

SpPot1-DBD (Pot1-DBD) = biological target: T8, SpPot1-DBD (Pot1-DBD) (Schizosaccharomyces pombe, UniProt O13988 1-389); assay: double-filter binding
T8 sequence: T1 sequence (O13988 1-389 limits assumed)

[8] = biological target: T9, Pot1pN (first OB fold of SpPot1) (Schizosaccharomyces pombe, UniProt O13988 1-187); assay: double-filter binding
T9 sequence: T3 sequence (O13988 1-187 limits assumed)

Question: Which results are given for `Nc1c(/N=N/c2ccc(-c3ccc(/N=N/c4cc(S(=O)(=O)O)c5ccccc5c4N)cc3)cc2)cc(S(=O)(=O)O)c2ccccc12` [CR, Congo red]?
Answer: IC50 [1]: 112000 ± 9000 nM; IC50 [2]: 130000 ± 17000 nM; inhibition of Pot1pN binding to 6mer [3]: functionally inhibited Pot1pN binding to 6mer; calculated radius of Pot1pN/CR species (Pot1pN): 3.8 nm; calculated MW of Pot1pN/CR species (Pot1pN; consistent with 3:3 trimer complex): 77 kDa; solubility behaviour at pH 6.15 (CR solubility at NMR pH): precipitates from solution; aggregation point [4]: 50 µM; toxicity [5]: toxic; effect on germ cell number (germ cells): drastic and permanent reduction in germ cell number; effect on amyloidosis phenotypes and cell survival (amyloidosis phenotypes): rescue amyloidosis phenotypes and prolong cell survival; binding stoichiometry (n) ([6]; ITC forward titration, one-site model): 1.07 ± 0.02; -TΔS [6]: 1.4 ± 0.2 kcal/mol; ΔH [6]: -9.7 ± 0.2 kcal/mol; Kd [6]: 700 ± 10 nM

Question: What does the source list for `Cc1cc(-c2ccc(/N=N/c3c(S(=O)(=O)O)cc4cc(S(=O)(=O)O)cc(N)c4c3O)c(C)c2)ccc1/N=N/c1c(S(=O)(=O)O)cc2cc(S(=O)(=O)O)cc(N)c2c1O` [TB, Trypan blue]?
Answer: -TΔS [6]: 5.7 ± 0.02 kcal/mol; ΔH [6]: -13.6 ± 0.004 kcal/mol; Kd [6]: 1210 nM and 1200 nM

Question: Which “inhibition of Pot1pN binding to 6mer” value [3] does the source give for `Cc1ccc2c(c1)sc(-c1ccc(N(C)C)cc1)[n+]2C` [Thioflavin T] here?
Answer: no effect

Question: And the “binding to Pot1pN by ITC” value ([6]; 2 mM Thioflavin T titrated into Pot1pN, single replicate)?
Answer: no detectable binding

Question: Which Kd [7] does the source give for d(GGTTAC) [6mer] here?
Answer: 30 nM

Question: Does TAAGGTTAC (ssDNA, 5' biotin (printed as biotin-conjugated threonine), 3-nt TAA linker) [biotin-d(TAAGGTTAC)] bind (6xHis-Pot1pN (TR-FRET))?
Answer: binds

Question: Does GGTTAGGGTTAG (ssDNA) [d(GGTTAGGGTTAG)] bind (hPOT1 (hPOT1-DBD))?
Answer: binds

Question: Does GGTTACGGTTAC (ssDNA) [d(GGTTACGGTTAC)] bind (SpPot1-DBD (Pot1-DBD))?
Answer: binds

Question: Does GGTTAC (ssDNA) [6mer] bind [8]?
Answer: binds

Reference: PMC3514547 (Biochemistry, 2012)
